Converted amounts (≈) assume the structure as drawn. “And” between values parts separate entries of the source, which are not always exact repeats. Equal values may be shown once. Read-outs that look alike come from different tables or passages of the source.

The subject of data set [1] is MCF-7 cells. Put plainly: Cytotoxicity to MCF-7 cells with or without 25 μM dicoumarol (sulforhodamine B assay). Type of data set: cell-based, human. The essentials:
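MCF-7 cells, which express high NQO1, were exposed to compounds for 2 hours with or without 25 μM dicoumarol. They were then washed and kept 72 hours in fresh media. Cell death was measured by sulforhodamine B assay.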
(In SRB staining, fixed cells bind dye roughly in proportion to their protein.)

Data set [2] concerns the target NQO1 (Homo sapiens, UniProt P15559). The data set is described as follows: NQO1 enzymatic measurements in vitro. The note with it: 1 μM substrate. Type of data set: biochemical. As for the experimental part:
As further evidence that the activity of these DNQ derivatives is dependent on their ability to be reduced by NQO1, full enzymatic measurements in vitro were performed. We found a strong correlation between catalytic efficiency of substrates in vitro and their cell culture toxicity. […] This provides strong evidence that the cytotoxicity of DNQ and its derivatives are dependent primarily upon the activity of NQO1 within the cell.

A short description of data set [3]: Aqueous solubility in pH 7.4 PBS by LC-MS. Type of data set: physicochemical. The conditions noted are these: phosphate buffered saline, pH 7.4, aqueous buffer, thermodynamic from solid, PBS pH 7.4; Table 4.3. The method in brief: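 Solid compound was sonicated 30 min in pH 7.4 PBS (the bath warmed to 45 °C, samples were cooled before filtration) and passed through a 0.45 μm filter. Filtrate was quantified by LC-MS with UV at 275 nm against a 1–100 μM DNQ calibration curve, which was also applied to derivatives. Strongly coloured filtrates were diluted 10-fold in PBS.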

Data set [4] in a line: Solubility in 20% HPβCD solution (pH modulation protocol). The conditions noted are these: 20% HPβCD. Type of data set: physicochemical. How it is done: The protocol for formulating DNQ compounds in HPβCD is as follows: the DNQ compound is slurried in a 20% solution of HPβCD in pH 7.4 PBS and the pH is then increased by the addition of 10 M NaOH to induce dissolution of the DNQ compound. The pH is returned to pH 7.5-8.0 by the careful addition of 1 M HCl. A 3.3 mM solution of the DNQ compound can be made by this method which is stable at least 24 hours. This represents a 30-fold increase in solubility of DNQ over PBS alone.
Although we were pleased to find active derivatives of DNQ that were up to 4-fold more soluble in water—sufficiently soluble for continuous IV infusion for human administration—this level of solubility was insufficient for animal studies by bolus injection. […] We used the same pH modulation protocol outlined for DNQ described in the specification above. The results are organized in Table 4.3 and FIG. 8. While all compounds were more soluble in HPβCD than in buffer alone, the fold increase in solubility varied widely.

Data set [5] is described as follows: Solubility in organic solvents. In kind it is physicochemical. The conditions noted are these: for solubility: organic solvent or mixture, thermodynamic from solid. How it is done: The solubility of DNQ derivatives in organic solvents was determined by measuring the amount of a given solvent required to dissolve a known amount of compound. Solvent was added to the compound in 50 μL aliquots and the slurry was sonicated. […] Solubility was assessed in DMSO, dichloromethane, and 33% methanol in dichloromethane (FIGS. 9, 10, and 11, respectively).

Data set [6] is described as follows: Maximum tolerated dose in mice. The note with it: mouse, in vivo, ip. An excerpt:
(§1) Because of the difficulty of repeated tail vein injections in mice, our group is using IP administration of compound.
(§2) All of these derivatives are currently being assessed for their maximum tolerated dose (MTD) in healthy mice. Compounds are formulated in HPβCD and delivered by IP injection to two mice once daily for five days.

In data set [7] the test system is healthy mice. The data set is described as follows: in vivo. The note with it: mouse, 5 days.
Description: as §1, §2

Data set [8] deals with PAR-PARP1. The data set is described as follows: PARP1 hyperactivation (PAR-PARP1 formation) in vivo in orthotopic Lewis Lung Carcinoma model, immunoblotting. The conditions noted are these: iv at or near MTD. Further details: species or system NOD/SCID mice. As for the experimental part:
Antibodies that specifically detect poly(ADP-ribosyl)ated α-PAR (BD Pharmingen, San Jose, Calif.) proteins (e.g., the most abundant species, poly(ADP-ribosyl)ated PARP1, PAR-PARP1) and α-PARP1 (sc-8007, Santa Cruz Biotechnology) antibodies were used at 1:4000 and 1:2000 dilutions, respectively. α-Tubulin was monitored for loading.
To generate a known control to monitor the formation of poly(ADP-ribose)ylated-polymerase 1 (PAR-PARP1) in cells, LLC tumor cells were treated in vitro with hydrogen peroxide (H2O2, 0.5 μM) for 15 minutes, and whole cell protein lysates were separated by SDS-PAGE using the α-PAR (BD Pharmingen, San Jose, Calif.) antibody described above. PAR-PARP1 formation was then assessed by immunoblot analyses as previously described in Huang et al., Cancer Research, 2012.
LLC cells (1.0×10^6) were intravenously (iv) injected into the tail veins of female 18-20 gram NOD/SCID mice. Establishment of tumor nodules in the lungs of exposed mice were confirmed by bioluminescence and mice (5/group) were treated intravenously (via tail vein injection) with: (i) hydroxypropyl-beta-cyclodextrin (HPRCD) vehicle alone; (ii) DNQ (7.5 mg/kg); (ii) DNQ-87 (14 mg/kg); (iii) DNQ-107 (10 mg/kg); or (vi) DNQ 9-251 (20 mg/kg) dissolved in HPRCD. At specific times indicated (in mins) after injection of vehicle or drug, mice were euthanized, lungs removed and tumor nodules harvested. […] Extracts from cells treated with H2O2 were used as controls for monitoring PAR-PARP1 formation in LLC tumor cells.

Data set [9] can be described thus: Solubility in organic solvents. Type of data set: physicochemical. The conditions noted are these: Table 1.
For data set [10] the following is noted: pH 7.4 PBS; cited from earlier work.
For data set [11] the following is noted: 20% HPβCD in H2O; cited from earlier work.
The conditions of data set [12]: reported; cited from earlier work.
Data set [13] has as its system NQO1+ cells. The note with it: in vitro; cited from earlier work.
The conditions of data set [14]: cited from earlier work.
Data set [15] deals with rats. The conditions noted are these: cited from earlier work.

Chain of NQO1 (P15559 whole entry): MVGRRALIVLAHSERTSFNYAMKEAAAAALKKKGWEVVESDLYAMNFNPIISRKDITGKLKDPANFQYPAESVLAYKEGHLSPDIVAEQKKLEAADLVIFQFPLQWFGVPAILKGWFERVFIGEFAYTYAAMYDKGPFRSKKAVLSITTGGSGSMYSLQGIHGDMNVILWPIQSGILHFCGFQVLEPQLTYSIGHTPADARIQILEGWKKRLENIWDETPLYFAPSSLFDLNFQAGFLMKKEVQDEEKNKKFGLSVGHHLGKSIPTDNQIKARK

The solubility is the concentration that dissolves in the medium under given conditions. In general, MTD refers to the highest dose tested that stayed within the study's limit of toxicity. For the molecule `Cc1cc(=O)[nH]c2c1C(=O)c1c(C)cc(=O)n(CCC(C)(C)C)c1C2=O` [Compound 9-251], the IC50 was 190 ± 20 nM in data set [1] (Homo sapiens, MCF7, Table 1, read-out: MCF7 IC50); 220 ± 40 nM in [1] (Homo sapiens, MCF7, Table 4.2, no DIC, ± s.e., read-out: IC50 vs. MCF-7 cells); under 500 nM in data set [1] (Homo sapiens, MCF7, classification in figure legends of FIGS. 7-11, read-out: IC50 ("active" / generally "inactive" compounds)); 1600 ± 600 nM in [1] (Homo sapiens, MCF7, read-out: IC50 vs. MCF-7 cells +25 μM DIC, Table 4.2, +25 μM DIC, ± s.e.). The “Fold Protection of MCF7 cells w/ 25 μM dicoumarol” value in data set [1] (Table 1) was found to be 8. Moreover, in [1] (Table 4.2), the “Fold protection by DIC” value was 7.1. Besides, the “NQO1 Initial Velocity @ 1 μM” value in data set [2] stood at 2000 ± 100. In data set [3], this molecule had a solubility at 30 min of 7 µM (≈ 2.48 µg/mL). In addition, the “fold increase in solubility in HPβCD over PBS alone” value in data set [4] turned out to be 3000 fold. Also, the solubility in data set [4] (20% HPβCD in pH 7.4 PBS, pH 7.4, aqueous with cosolvent or surfactant or cyclodextrin, thermodynamic from solid, Table 4.3) is 19 mM (≈ 6730 µg/mL); in data set [5] (2:1 CH2Cl2:MeOH, Table 4.3, read-out: Solubility in 2:1 CH2Cl2:MeOH), 120 mM (≈ 42500 µg/mL); in data set [5] (CH2Cl2:MeOH 2:1, Table 1, read-out: CH2Cl2:MeOH 2:1 solubility), 120 mM (≈ 42500 µg/mL); in data set [5] (CH2Cl2, Table 1, read-out: CH2Cl2 solubility), 31 mM (≈ 11000 µg/mL); in data set [5] (DMSO, Table 1, read-out: DMSO solubility), 15 mM (≈ 5320 µg/mL); in data set [9] (organic solvent or mixture, thermodynamic from solid, THF), 23 mM (≈ 8150 µg/mL). Further, the “Solubility in CH2Cl2” value in data set [5] (CH2Cl2, Table 4.3) was 31 mM (≈ 11000 µg/mL). In addition, in [5] (DMSO, Table 4.3), the “Solubility in DMSO” value turned out to be 15 mM (≈ 5320 µg/mL). Also, the MTD at 5 days in data set [6] is 22 mg/kg and 62 µmol/kg. Further, the “tolerated concentration relative to DNQ” value in data set [7] was determined as 3.5 fold. For the same molecule, the “PAR-PARP1 formation in tumor tissue” value in data set [8] is listed as “higher levels of PAR-PARP1 formation”.

One may read the aqueous solubility as the concentration that dissolves in the medium under given conditions. With `CC1(C)CCC2=C(O1)c1ccccc1C(=O)C2=O` [β-lap, β-lapachone, reference compound], in data set [1] (Table 1), the “Fold Protection of MCF7 cells w/ 25 μM dicoumarol” value was found to be 2.1. For the same molecule, the IC50 in [1] (Table 1, read-out: MCF7 IC50) came to 3700 nM. Further, in data set [2], the “NQO1 Initial Velocity @ 1 μM” value amounted to 150. Also, the “CH2Cl2:MeOH 2:1 solubility” value in data set [5] (CH2Cl2:MeOH 2:1, Table 1) turned out to be 1400 mM. The CH2Cl2 solubility in [5] (CH2Cl2, Table 1) is recorded as 1650 mM. This molecule also displayed a DMSO solubility in data set [5] (DMSO, Table 1) of 170 mM. For the same molecule, the aqueous solubility in data set [10] is about 160 µM (≈ 38.8 µg/mL). Moreover, in data set [11], the “fold increase in solubility in HPβCD” value is on record as about 150 fold. This molecule yielded a THF solubility in data set [9] of 660 mM. Moreover, the “time to complete degradation in whole blood” value in [12] is reported as at most 30 min. For the same molecule, the LD50 in data set [13] was 2 to 10 µM.

Regarding “2-hydroxypropyl-beta-cyclodextrin [HPβCD]”, the “tolerated dose by IP injection” value in data set [14] is reported as over 5 g/kg. In addition, in [15], the “MTD by IV injection” value is “approximately 2.25 g/kg”.

The values above are taken from patent US10285986B2, “Compounds and anti-tumor NQO1 substrates” (The Board of Trustees of the University of Illinois, priority 2011, dated 2019).
